Experimental data reported in PubChem BioAssay (NCI).
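96-well plates; 48 h exposure; 5 concentrations. Endpoints by linear interpolation between flanking doses. Not reached: highest tested concentration assigned. GI50: concentration for 50% inhibition of growth. Definition used: TGI = concentration required for complete inhibition of growth.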

Legend:
Assay in all cases: NCI tumour cell line growth inhibition, 48 h; in the data active = GI50 below about 0.43 µM; inactive = the rest
TK-10 renal = system: TK-10 renal
CCRF-CEM leukemia = system: CCRF-CEM leukemia
DU-145 prostate = system: DU-145 prostate
SN12C renal = system: SN12C renal
NCI-H522 lung = system: NCI-H522 lung
M14 melanoma = system: M14 melanoma
SK-MEL-5 melanoma = system: SK-MEL-5 melanoma
A549 NSCLC = system: A549 NSCLC
RPMI-8226 leukemia = system: RPMI-8226 leukemia
K-562 leukemia = system: K-562 leukemia
HT29 colon = system: HT29 colon
KM12 colon = system: KM12 colon
SK-MEL-2 melanoma = system: SK-MEL-2 melanoma
HOP-92 NSCLC = system: HOP-92 NSCLC
NCI-H460 lung = system: NCI-H460 lung
EKVX NSCLC = system: EKVX NSCLC
SNB-75 CNS = system: SNB-75 CNS
NCI/ADR-RES ovarian = system: NCI/ADR-RES ovarian
SK-MEL-28 melanoma = system: SK-MEL-28 melanoma
SW-620 colon = system: SW-620 colon
SF-539 CNS = system: SF-539 CNS
SK-OV-3 ovarian = system: SK-OV-3 ovarian
MCF7 breast = system: MCF7 breast
ACHN renal = system: ACHN renal
UACC-62 melanoma = system: UACC-62 melanoma
MDA-MB-435 = system: MDA-MB-435
SNB-19 CNS = system: SNB-19 CNS
RXF 393 renal = system: RXF 393 renal
NCI-H226 lung = system: NCI-H226 lung
786-0 renal = system: 786-0 renal
HCT-116 colon = system: HCT-116 colon
A498 renal = system: A498 renal
MALME-3M melanoma = system: MALME-3M melanoma
HCT-15 colon = system: HCT-15 colon
MDA-MB-231 breast = system: MDA-MB-231 breast
BT-549 breast = system: BT-549 breast
OVCAR-8 ovarian = system: OVCAR-8 ovarian
HL-60(TB) leukemia = system: HL-60(TB) leukemia
OVCAR-3 ovarian = system: OVCAR-3 ovarian
HOP-62 NSCLC = system: HOP-62 NSCLC
LOX IMVI melanoma = system: LOX IMVI melanoma
HS 578T breast = system: HS 578T breast
NCI-H23 lung = system: NCI-H23 lung
U251 CNS = system: U251 CNS
SF-295 CNS = system: SF-295 CNS
UO-31 renal = system: UO-31 renal
COLO 205 colon = system: COLO 205 colon
T-47D breast = system: T-47D breast
CAKI-1 renal = system: CAKI-1 renal
PC-3 prostate = system: PC-3 prostate
HCC-2998 colon = system: HCC-2998 colon
SF-268 CNS = system: SF-268 CNS
IGROV1 ovarian = system: IGROV1 ovarian
OVCAR-4 ovarian = system: OVCAR-4 ovarian
OVCAR-5 ovarian = system: OVCAR-5 ovarian
MOLT-4 leukemia = system: MOLT-4 leukemia
UACC-257 melanoma = system: UACC-257 melanoma
SR leukemia = system: SR leukemia

COc1ccc(/C=C/c2nnc(/C=C/c3ccc(OC)c(OC)c3)o2)cc1OC
inactive: GI50 (TK-10 renal) 3.77 µM | GI50 (CCRF-CEM leukemia) 3.97 µM | GI50 (DU-145 prostate) 15 µM | GI50 (SN12C renal) 5.5 µM | GI50 (NCI-H522 lung) 1.9 µM | GI50 (M14 melanoma) 3.1 µM | GI50 (SK-MEL-5 melanoma) 2.17 µM | GI50 (A549 NSCLC) 4.84 µM | GI50 (RPMI-8226 leukemia) 2.65 µM | GI50 (K-562 leukemia) 1.83 µM | GI50 (HT29 colon) 2.61 µM | GI50 (KM12 colon) 6.86 µM | GI50 (SK-MEL-2 melanoma) 2.9 µM | GI50 (HOP-92 NSCLC) 2.52 µM | GI50 (NCI-H460 lung) 4.23 µM | GI50 (EKVX NSCLC) 6.22 µM | GI50 (SNB-75 CNS) 4.22 µM | GI50 (NCI/ADR-RES ovarian) 3.52 µM | GI50 (SK-MEL-28 melanoma) 4.96 µM | GI50 (SW-620 colon) 3.35 µM | GI50 (SF-539 CNS) 2.66 µM | GI50 (SK-OV-3 ovarian) 8.62 µM | GI50 (MCF7 breast) 3.44 µM | GI50 (ACHN renal) 13.9 µM | GI50 (UACC-62 melanoma) 2.39 µM | GI50 (MDA-MB-435) 0.929 µM | GI50 (SNB-19 CNS) 4.11 µM | GI50 (RXF 393 renal) 7.9 µM | GI50 (NCI-H226 lung) 14.9 µM | GI50 (786-0 renal) 5.59 µM | GI50 (HCT-116 colon) 2.57 µM | GI50 (MALME-3M melanoma) 6.16 µM | GI50 (HCT-15 colon) 2.78 µM | GI50 (MDA-MB-231 breast) 3.62 µM | GI50 (BT-549 breast) 2.9 µM | GI50 (OVCAR-8 ovarian) 8.78 µM | GI50 (HL-60(TB) leukemia) 2.36 µM | GI50 (OVCAR-3 ovarian) 5.01 µM | GI50 (HOP-62 NSCLC) 5.21 µM | GI50 (LOX IMVI melanoma) 3.11 µM | GI50 (HS 578T breast) 3.71 µM | GI50 (NCI-H23 lung) 4.4 µM | GI50 (U251 CNS) 3.81 µM | GI50 (SF-295 CNS) 2.95 µM | GI50 (UO-31 renal) 4.78 µM | GI50 (COLO 205 colon) 8.35 µM | GI50 (T-47D breast) 3.48 µM | GI50 (CAKI-1 renal) 11.4 µM | GI50 (PC-3 prostate) 4.07 µM | GI50 (HCC-2998 colon) 19.4 µM | GI50 (SF-268 CNS) 7.77 µM | GI50 (IGROV1 ovarian) 4.23 µM | GI50 (OVCAR-4 ovarian) 9.08 µM | GI50 (OVCAR-5 ovarian) 4.9 µM | GI50 (MOLT-4 leukemia) 3.24 µM
6.8 µM: TGI (NCI-H522 lung)
47.5 µM: TGI (HS 578T breast)
91.7 µM: TGI (SNB-19 CNS)
53.8 µM: TGI (OVCAR-5 ovarian)
> 100 µM: TGI (CCRF-CEM leukemia) | TGI (DU-145 prostate) | TGI (SN12C renal) | TGI (A549 NSCLC) | TGI (RPMI-8226 leukemia) | TGI (K-562 leukemia) | TGI (KM12 colon) | TGI (NCI-H460 lung) | TGI (EKVX NSCLC) | TGI (NCI/ADR-RES ovarian) | TGI (SK-MEL-28 melanoma) | TGI (SW-620 colon) | TGI (MCF7 breast) | TGI (ACHN renal) | TGI (NCI-H226 lung) | TGI (786-0 renal) | TGI (MALME-3M melanoma) | TGI (HCT-15 colon) | TGI (OVCAR-8 ovarian) | TGI (HOP-62 NSCLC) | TGI (NCI-H23 lung) | TGI (UO-31 renal) | TGI (CAKI-1 renal) | TGI (PC-3 prostate) | TGI (HCC-2998 colon) | TGI (SF-268 CNS) | TGI (IGROV1 ovarian) | TGI (OVCAR-4 ovarian) | TGI (MOLT-4 leukemia)
35.7 µM: TGI (BT-549 breast)
9.4 µM: TGI (SF-539 CNS)
81.2 µM: TGI (T-47D breast)
23.3 µM: TGI (HOP-92 NSCLC)
10.1 µM: TGI (SK-MEL-5 melanoma)
9.1 µM: TGI (A498 renal)
9.91 µM: TGI (UACC-62 melanoma)
45.5 µM: TGI (SNB-75 CNS)
29 µM: TGI (LOX IMVI melanoma)
17.7 µM: TGI (HCT-116 colon) | TGI (SF-295 CNS)
43.4 µM: TGI (MDA-MB-231 breast)
80.8 µM: TGI (OVCAR-3 ovarian)
98.2 µM: TGI (COLO 205 colon)
18.6 µM: TGI (SK-MEL-2 melanoma) | TGI (U251 CNS)
27.8 µM: TGI (TK-10 renal)
active: GI50 (A498 renal) 0.24 µM
3.93 µM: TGI (MDA-MB-435)
10.8 µM: TGI (HT29 colon)
93.3 µM: TGI (SK-OV-3 ovarian)
8.6 µM: TGI (HL-60(TB) leukemia)
78.1 µM: TGI (RXF 393 renal)
26 µM: TGI (M14 melanoma)

N#CCCOc1cccc(C2(N3CCCCC3)CCCCC2)c1
> 100 µM: TGI (UACC-257 melanoma) | TGI (TK-10 renal) | TGI (CCRF-CEM leukemia) | TGI (DU-145 prostate) | TGI (SN12C renal) | TGI (NCI-H522 lung) | TGI (M14 melanoma) | TGI (SK-MEL-5 melanoma) | TGI (A549 NSCLC) | TGI (RPMI-8226 leukemia) | TGI (K-562 leukemia) | TGI (HT29 colon) | TGI (KM12 colon) | TGI (SK-MEL-2 melanoma) | TGI (EKVX NSCLC) | TGI (NCI/ADR-RES ovarian) | TGI (SK-MEL-28 melanoma) | TGI (SW-620 colon) | TGI (SF-539 CNS) | TGI (SK-OV-3 ovarian) | TGI (MCF7 breast) | TGI (ACHN renal) | TGI (UACC-62 melanoma) | TGI (MDA-MB-435) | TGI (SNB-19 CNS) | TGI (NCI-H226 lung) | TGI (786-0 renal) | TGI (HCT-116 colon) | TGI (A498 renal) | TGI (MALME-3M melanoma) | TGI (HCT-15 colon) | TGI (MDA-MB-231 breast) | TGI (BT-549 breast) | TGI (OVCAR-8 ovarian) | TGI (HL-60(TB) leukemia) | TGI (SR leukemia) | TGI (OVCAR-3 ovarian) | TGI (HOP-62 NSCLC) | TGI (LOX IMVI melanoma) | TGI (HS 578T breast) | TGI (NCI-H23 lung) | TGI (U251 CNS) | TGI (SF-295 CNS) | TGI (UO-31 renal) | TGI (COLO 205 colon) | TGI (T-47D breast) | TGI (CAKI-1 renal) | TGI (PC-3 prostate) | TGI (SF-268 CNS) | TGI (IGROV1 ovarian) | TGI (OVCAR-4 ovarian) | TGI (OVCAR-5 ovarian) | TGI (MOLT-4 leukemia)
